Measured values: the supplement of paper PMC4862054

Legend:
Conditions in all cases: incubation time: 72 h
[1] = tested on: HCC1599; assay: drug sensitivity score (DSS), CellTox Green (DSS (AUC-based score)); higher = stronger drug effect (viability inhibition or cytotoxicity); extreme values may be limits of the assay
Procedure, shortened: (§1)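 The drug sensitivity score reflects the area under a fitted dose-response curve. To obtain it, breast cancer cells in 20 µl suspension were seeded into 384-well plates containing compound at 5 concentrations, 10-fold apart over a compound-specific 10,000-fold range, and incubated 72 h. CellTox Green fluorescence (485/520 nm) was read first and CellTiter-Glo luminescence second, after 10 min at room temperature. Each plate was normalised to 0.1 % DMSO and a positive kill control.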

[2] = tested on: MDA-MB-468; assay: as above
Procedure, shortened: as §1

[3] = tested on: HCC1143; assay: as above
Procedure, shortened: as §1

[4] = tested on: BT-549; assay: as above
Procedure, shortened: as §1

[5] = tested on: CAL-120; assay: as above
Procedure, shortened: as §1

[6] = tested on: MDA-MB-453; assay: as above
Procedure, shortened: as §1

[7] = tested on: CAL-51; assay: as above
Procedure, shortened: as §1

[8] = tested on: DU-4475; assay: as above
Procedure, shortened: as §1

[9] = tested on: HCC1599; assay: drug sensitivity score (DSS), CellTiter-Glo (DSS (AUC-based score)); higher = stronger drug effect (viability inhibition or cytotoxicity); extreme values may be limits of the assay
Procedure, shortened: as §1

[10] = tested on: MDA-MB-468; assay: as above
Procedure, shortened: as §1

[11] = tested on: MDA-MB-436; assay: as above
Procedure, shortened: as §1

[12] = tested on: HCC1143; assay: as above
Procedure, shortened: as §1

[13] = tested on: BT-549; assay: as above
Procedure, shortened: as §1

[14] = tested on: SK-BR-3; assay: as above
Procedure, shortened: as §1

[15] = tested on: CAL-120; assay: as above
Procedure, shortened: as §1

[16] = tested on: MCF-10A; assay: as above
Procedure, shortened: as §1

[17] = tested on: CAL-85-1; assay: as above
Procedure, shortened: as §1

[18] = tested on: HCC1937; assay: as above
Procedure, shortened: as §1

[19] = tested on: MDA-MB-453; assay: as above
Procedure, shortened: as §1

[20] = tested on: Hs578T; assay: as above
Procedure, shortened: as §1

[21] = tested on: BT-474; assay: as above
Procedure, shortened: as §1

[22] = tested on: MFM-223; assay: as above
Procedure, shortened: as §1

[23] = tested on: CAL-148; assay: as above
Procedure, shortened: as §1

[24] = tested on: HDQ-P1; assay: as above
Procedure, shortened: as §1

[25] = tested on: CAL-51; assay: as above
Procedure, shortened: as §1

[26] = tested on: DU-4475; assay: as above
Procedure, shortened: as §1

[27] = tested on: MDA-MB-231; assay: as above
Procedure, shortened: as §1

SMILES | drug sensitivity score [1] | drug sensitivity score [2] | drug sensitivity score [3] | drug sensitivity score [4] | drug sensitivity score [5] | drug sensitivity score [6] | drug sensitivity score [7] | drug sensitivity score [8] | drug sensitivity score [9] | drug sensitivity score [10] | drug sensitivity score [11] | drug sensitivity score [12] | drug sensitivity score [13] | drug sensitivity score [14] | drug sensitivity score [15] | drug sensitivity score [16] | drug sensitivity score [17] | drug sensitivity score [18] | drug sensitivity score [19] | drug sensitivity score [20] | drug sensitivity score [21] | drug sensitivity score [22] | drug sensitivity score [23] | drug sensitivity score [24] | drug sensitivity score [25] | drug sensitivity score [26] | drug sensitivity score [27]
C=CCNC1=C2C[C@@H](C)C[C@H](OC)[C@H](O)[C@@H](C)/C=C(\C)[C@H](OC(N)=O)[C@@H](OC)/C=C\C=C(/C)C(=O)NC(=CC1=O)C2=O [Tanespimycin] | 0 | 0 | 2.55 | 0 | 0.533 | 0 | 10.9 | 7.07 | 8.46 | 11.3 | 18.2 | 18 | 18.5 | 18.3 | 10.5 | 21.6 | 13.3 | 16.5 | 23.7 | 15.6 | 14.5 | 16.8 | 16.3 | 19 | 20.7 | 20.2 | 14.5
CO[C@H]1C[C@@H]2CC[C@@H](C)[C@@](O)(O2)C(=O)C(=O)N2CCCC[C@H]2C(=O)O[C@H]([C@H](C)C[C@@H]2CC[C@@H](OC(=O)C(C)(CO)CO)[C@H](OC)C2)CC(=O)[C@H](C)/C=C(\C)[C@@H](O)[C@@H](OC)C(=O)[C@H](C)C[C@H](C)/C=C/C=C/C=C/1C [Temsirolimus] | 0 | 0 | 0 | 0 | 0 | 0 | 0 | 0 | 0 | 14.7 | 3.51 | 8.92 | 12.7 | 11 | 7.34 | 0 | 9.28 | 6.15 | 9.78 | 10.1 | 2.49 | 7.59 | 8.93 | 4.08 | 11.3 | 5.2 | 0
O=C(c1ccc(C(=O)N2CCC(N3CCCC3)CC2)c(Nc2ccccc2)c1)N1CCC(N2CCCC2)CC1 [UNC1215] | 0 | 0 | 0.868 | 0 | 0 | 0 | 0 | 0 | 0 | 0 | 0 | 0 | 0 | 0 | 0 | 0 | 0 | 0 | 0 | 0 | 0 | 0 | 0 | 0 | 0 | 0 | 0
C[C@]1(c2nc3c(C(N)=O)cccc3[nH]2)CCCN1 [Veliparib] | 0 | 0 | 0 | 0 | 0 | 0 | 0 | 0 | 0 | 0 | 0 | 0 | 0 | 0 | 0 | 0 | 0 | 0 | 0 | 0 | 0.587 | 0 | 0 | 0 | 3.97 | 0 | 0
CC[C@]1(O)C[C@@H]2CN(CCc3c([nH]c4ccccc34)[C@@](C(=O)OC)(c3cc4c(cc3OC)N(C)[C@H]3[C@@](O)(C(=O)OC)[C@H](OC(C)=O)[C@]5(CC)C=CCN6CC[C@]43[C@@H]65)C2)C1 [Vinblastine] | 2.86 | 12.8 | 9.2 | 10.2 | 3.49 | 0 | 22.3 | 0 | 17.2 | 21.1 | 22.8 | 15.8 | 21.3 | 27.5 | 14.2 | 10.9 | 20.7 | 9.45 | 13.1 | 20.3 | 14.3 | 13 | 13 | 7.5 | 18.4 | 8.05 | 16.2
CS(=O)(=O)c1ccc(C(=O)Nc2ccc(Cl)c(-c3ccccn3)c2)c(Cl)c1 [Vismodegib] | 0 | 0 | 0 | 0 | 0 | 0 | 0 | 0 | 0 | 0 | 0 | 0 | 0 | 0 | 0 | 0 | 0 | 0 | 0 | 0 | 0 | 0 | 0 | 0 | 0 | 0 | 0
